Here are results for 16 molecules from US7932283B2, “Fungicide N-cyclopropyl-sulfonylamide derivatives” (Bayer Cropscience AG, priority 2006, dated 2011).

Each structure is given as a SMILES string.

One series deals with Pyrenophora teres. Briefly: In vivo test on Pyrenophora teres (barley net blotch). To be noted: 288 h, barley plants (Express variety), grading 12 days after contamination, good (at least 70%) or total protection. The protocol:
In Vivo Test on Pyrenophore teres (Barley Net Blotch)
The active ingredients tested are prepared by homogenisation in a mixture of acetone/tween/DMSO, then diluted with water to obtain the desired active material concentration. Barley plants (Express variety) in starter cups, sown on a 50/50 peat soil-pozzolana substrate and grown at 12° C., are treated at the 1-leaf stage (10 cm tall) by spraying with the active ingredient prepared as described above. Plants, used as controls, are treated with the mixture of acetone/tween/DMSO/water not containing the active material.
After 24 hours, the plants are contaminated by spraying them with an aqueous suspension of Pyrenophora teres spores (12,000 spores per ml). The spores are collected from a 12-day-old culture. The contaminated barley plants are incubated for 24 hours at about 20° C. and at 100% relative humidity, and then for 12 days at 80% relative humidity.

The subject of series [1] is Mycosphaerella graminicola. Briefly: In vivo test on Mycosphaerella graminicola (wheat leaf spot). The conditions noted are these: Zymoseptoria tritici, wheat plants (Scipion variety), grading 21 to 28 days after contamination, good (at least 70%) or total protection, read-out: protection (% of efficacy). The protocol: In vivo Test on Mycosphaerella graminicola (Wheat Leaf Spot)
The active ingredients tested are prepared by homogenisation in a mixture of acetone/tween/DMSO, and then diluted with water to obtain the desired active material concentration.
Wheat plants (Scipion variety), sown on a 50/50 peat soil-pozzolana substrate in starter cups and grown at 12° C., are treated at the 1-leaf stage (10 cm tall) by spraying with the active ingredient prepared as described above.
Plants, used as controls, are treated with the mixture of acetone/tween/DMSO/water not containing the active material.
After 24 hours, the plants are contaminated by spraying them with an aqueous suspension of Mycosphaerella graminicola spores (500 000 spores per ml). The spores are collected from a 7-day-old culture. The contaminated wheat plants are incubated for 72 hours at 18° C. and at 100% relative humidity, and then for 21 to 28 days at 90% relative humidity.
Grading (% of efficacy) is carried out 21 to 28 days after the contamination, in comparison with the control plants.

The test system of the next series is Puccinia recondita. Briefly: In vivo test on Puccinia recondita f. sp. tritici (wheat brown rust). To be noted: 240 h, wheat plants (Scipion variety), grading 10 days after contamination, good (at least 70%) or total protection. The protocol:
In vivo Test on Puccinia reconditef. Sp. tritici (Wheat Brown Rust)
The active ingredients tested are prepared by homogenisation in a mixture of acetone/tween/DMSO, then diluted with water to obtain the desired active material concentration. Wheat plants (Scipion variety) in starter cups, sown on 50/50 peat soil-pozzolana substrate and grown at 12° C., are treated at the 1-leaf stage (10 cm tall) by spraying with the active ingredient prepared as described above. Plants, used as controls, are treated with the mixture of acetone/tween/DMSO/water not containing the active material.
After 24 hours, the plants are contaminated by spraying the leaves with an aqueous suspension of Puccinia recondita spores (100,000 spores per ml). The spores are collected from a 10-day-old contaminated wheat and are suspended in water containing 2.5 ml/of tween 80 10%. The contaminated wheat plants are incubated for 24 hours at 20° C. and at 100% relative humidity, and then for 10 days at 20° C. and at 70% relative humidity. Grading is carried out 10 days after the contamination, in comparison with the control plants.

Series [2] is described as follows: logP by HPLC on reversed-phase column (C 18), EEC Directive 79/B31 Annex V.A8, methods A and B. The class given is physicochemical. The conditions noted are these: reversed-phase HPLC column (C 18), linear gradient 10% to 90% acetonitrile. The protocol: Calibration was carried out using unbranched alkan-2-ones (having 3 to 16 carbon atoms) with known logP values (determination of the logP values by the retention times using linear interpolation between two successive alkanones).

The mark [3] stands for this setting: HPLC reversed-phase C 18, method B: 40° C., 0.1% aqueous formic acid and acetonitrile.
[4] abbreviates: LogP method B: HPLC reversed-phase C 18, 40° C., 0.1% aqueous formic acid / acetonitrile.

Turning to `Cc1cccc(Oc2ccc(S(=O)(=O)N(C(=O)c3cn(C)nc3C(F)F)C3CC3)cc2)c1` [Compound 254], the pest or weed control at 500 ppm (in the series with Pyrenophora teres; in series [1]) was not below 70% throughout.
For the molecule `COc1nn(C)cc1C(=O)N(C1CC1)S(=O)(=O)c1ccc(-c2cccc3ccccc23)cc1` [Compound 258], the pest or weed control at 500 ppm (in the series on Pyrenophora teres; in series [1]) was not below 70% each time.
For the molecule `CCCCOc1ccc(S(=O)(=O)N(C(=O)c2cn(C)nc2OC)C2CC2)cc1` [Compound 262], the pest or weed control at 500 ppm (in the series with Pyrenophora teres; in series [1]; with Puccinia recondita) was not below 70% throughout.
In the case of `CCCCOc1ccc(S(=O)(=O)N(C(=O)c2c(C)nn(C)c2F)C2CC2)cc1` [Compound 263], the pest or weed control at 500 ppm (with Pyrenophora teres; in series [1]) was not below 70% in each case.
On to `COc1nn(C)cc1C(=O)N(C1CC1)S(=O)(=O)c1ccc(Sc2ccccc2)cc1` [Compound 266, N-cyclopropyl-3-methoxy-1-methyl-N-{[4-(phenylthio)phenyl]sulfonyl}-1H-pyrazole-4-carboxamide], for which the pest or weed control at 500 ppm with Pyrenophora teres and in the series on Puccinia recondita was not below 70% throughout.
`COc1nn(C)cc1C(=O)N(C1CC1)S(=O)(=O)c1ccc(Oc2ccc(Br)cc2)cc1` [Compound 269]: the pest or weed control at 500 ppm with Pyrenophora teres and in the series with Puccinia recondita was not below 70% throughout.
On to `CCc1nn(C)c(F)c1C(=O)N(C1CC1)S(=O)(=O)c1ccccc1Br` [Compound 374], for which the pest or weed control at 500 ppm (in the series on Pyrenophora teres; in series [1]) was not below 70% in each case. In series [2] (setting [3]), this molecule yielded a chromatographic logP of 2.7.
Turning to `CCc1nn(C)c(F)c1C(=O)N(C1CC1)S(=O)(=O)c1ccc(C(F)(F)F)cc1Br` [Compound 375], the pest or weed control at 500 ppm (in the series on Pyrenophora teres; in series [1]) was not below 70% in each case. This molecule also yielded a chromatographic logP in series [2] (setting [3]) of 3.6.
For the molecule `CCc1nn(C)c(F)c1C(=O)N(C1CC1)S(=O)(=O)c1c(O)cc(C(F)(F)F)cc1O` [Compound 387], the pest or weed control at 500 ppm (in the series with Pyrenophora teres; in series [1]) was not below 70% throughout. In series [2] (setting [3]), this molecule came in with a chromatographic logP of 3.8.
In the series on Pyrenophora teres, `COc1nn(C)cc1C(=O)N(C1CC1)S(=O)(=O)c1c(O)cc(C(F)(F)F)cc1O` [Compound 396] registered a pest or weed control at 500 ppm not below 70%. Moreover, in series [2] (setting [3]), the chromatographic logP is 3.
In the case of `Cn1nc(C(F)(F)F)c(C(=O)N(C2CC2)S(=O)(=O)c2c(O)sc(O)c2Br)c1F` [Compound 436], the pest or weed control at 500 ppm in the series on Pyrenophora teres is not below 70%. This molecule also showed a chromatographic logP in series [2] (setting [4]) of 3.9.
`Cc1nn(C)c(F)c1C(=O)N(C1CC1)S(=O)(=O)c1ccc2c(c1)CCC(C)(C)O2` [Compound 456]: the pest or weed control at 500 ppm (in the series with Pyrenophora teres; in series [1]; in the series on Puccinia recondita) was not below 70% in each case.
Take `COc1nn(C)cc1C(=O)N(C1CC1)S(=O)(=O)c1ccc(Oc2ccc(Cl)cc2)cc1Cl` [Compound 501]: the pest or weed control at 500 ppm (with Pyrenophora teres; in series [1]) was not below 70% in each case.
`CCOc1nn(C)cc1C(=O)N(C1CC1)S(=O)(=O)c1ccc(Oc2ccc(OC)cc2)c(O)c1` [Compound 531]: the pest or weed control at 500 ppm (in the series on Pyrenophora teres; in series [1]; in the series with Puccinia recondita) was not below 70% in each case. For the same molecule, in series [2] (setting [4]), the chromatographic logP was determined as 3.8.
In the case of `CCOc1nn(C)cc1C(=O)N(C1CC1)S(=O)(=O)c1ccc(Oc2ccc(C)cc2)c(O)c1` [Compound 542], the pest or weed control at 500 ppm (with Pyrenophora teres; in series [1]; with Puccinia recondita) was not below 70% throughout. The molecule further came in with a chromatographic logP in series [2] (setting [4]) of 4.3.
With `CCOc1nn(C)cc1C(=O)N(C1CC1)S(=O)(=O)c1ccc(Oc2cccc(O)c2)c(O)c1` [Compound 546], the pest or weed control at 500 ppm in the series with Pyrenophora teres and in the series on Puccinia recondita was not below 70% throughout. Besides, the chromatographic logP in series [2] (setting [4]) came out at 4.3.
